# Source: patent US20240174634A1, “Aldehyde Dehydrogenase Inhibitors and Their Therapeutic Use” (priority 2020, published 2024)
# Columns and labels:
# ALDH1A1 = molecular target: T1, ALDH1A1 (Homo sapiens, UniProt P00352); assay: Selectivity biochemical assay, NAD(P)H-Glo Detection System
# T1 construct: His-tag; made in house; host or cells: E. coli Rosetta (DE3)
# T1 sequence (P00352 1-501): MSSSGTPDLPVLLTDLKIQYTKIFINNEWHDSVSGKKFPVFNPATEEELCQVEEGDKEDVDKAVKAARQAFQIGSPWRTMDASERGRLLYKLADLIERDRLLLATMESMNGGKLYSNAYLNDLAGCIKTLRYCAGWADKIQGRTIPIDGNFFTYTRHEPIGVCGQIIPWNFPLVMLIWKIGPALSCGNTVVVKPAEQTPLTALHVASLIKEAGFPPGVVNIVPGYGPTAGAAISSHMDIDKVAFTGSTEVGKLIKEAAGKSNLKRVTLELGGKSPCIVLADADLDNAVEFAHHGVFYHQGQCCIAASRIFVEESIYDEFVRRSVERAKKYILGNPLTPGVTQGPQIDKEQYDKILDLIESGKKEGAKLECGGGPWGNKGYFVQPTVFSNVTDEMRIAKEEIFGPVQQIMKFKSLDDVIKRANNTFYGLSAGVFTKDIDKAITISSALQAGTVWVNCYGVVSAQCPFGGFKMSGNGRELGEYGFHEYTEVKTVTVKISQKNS
# From the text: (§1) Cloning: Open reading frames corresponding to the protein coding sequences of full length human ALDH1A1 (Uniprot ID P00352), ALDH1A2 (094788) and ALDH1A3 (P47895) were polymerase chain reaction (PCR) amplified from human cDNA and inserted into the multi-cloning sites of the commercially available (Novagen) E. coli expression vectors pET47b (ALDH1A1, EcoRI restriction site; ALDH1A2, BamHI and EcoRI sites) or pET28a (ALDH1A3, NdeI and BamHI sites), using standard molecular genetic techniques. Recombinant DNA products were sequence verified prior to use in expression studies.
# (§2) Expression: Expression constructs were transformed into the E. coli strain Rosetta (DE3) (Merck) and individual colonies used to inoculate 10 mL lysogen broth (LB) medium supplemented with kanamycin and chloramphenicol at 50 μg/mL and 34 μg/mL, respectively. Cultures were grown to saturation overnight at 37° C., prior to being used to sub-inoculate fresh 1 L LB medium cultures (plus antibiotics, as before). 1 L cultures were grown at 37° C., 200 rpm, throughout the day until the optical density at 600 nm (OD600) reached ˜0.8, at which point growth temperature was reduced to 18° C. and 1 mM isopropyl β-d-1-thiogalacto pyranoside (IPTG) added to induce protein expression.
# (§3) Cultures were left overnight (at least 16 h) under these conditions and the following day harvested by centrifugation (4000 G, 10 minutes). Culture supernatant was discarded and cell pellets stored at −80° C. until further processing.
# (§4) Purification: Cell pellets were thawed on ice, re-suspended in Ni Affinity Buffer A (20 mM HEPES pH 7.5, 300 mM NaCl, 20 mM imidazole, 1 mM tris(2-carboxyethyl)phosphine (TCEP)) with protease inhibitors (cOmplete Ultra protease inhibitor, Roche), and lysed by sonication. Lysates were clarified by centrifugation at 18,000 G, 4° C., for 40 minutes, and loaded directly onto a pre-equilibrated (Buffer A) 5 mL HisTrap Fast Flow column (GE Healthcare) by way of an AKTA Fast Protein Liquid Chromatography (FPLC) system. The column was sequentially treated with 6 column volumes (CV) 100% Buffer A, 8 CV of 90% Buffer A:10% Buffer B (20 mM 4-(2-hydroxyethyl)-1-piperazineethanesulfonic acid (HEPES) pH 7.5, 300 mM NaCl, 500 mM imidazole, 1 mM TCEP) and finally a linear gradient from 10-70% Buffer B over 8 CV to elute recombinant His-tagged protein. Relevant fractions (as measured by 280 nm absorbance) collected during elution were pooled and subjected to further purification by size exclusion chromatography (Superdex 200 26/600, GE Healthcare, running buffer 20 mM 2-(carbamoylmethylamino)ethanesulfonic acid (ACES) pH 7.5, 1 mM TCEP). Relevant fractions from this step were pooled, aliquoted, and stored at −80° C. until required for compound profiling assays.
# (§5) Materials: ALDH2 was purchased from Abnova. Tris(hydroxymethyl)aminomethane (Tris) was purchased from MP Biomedicals. TCEP, ethylenediaminetetraacetic acid (EDTA), propionaldehyde, DMSO and Tween-20 were purchased from Sigma. Nicotinamide adenine dinucleotide (NAD) was obtained from Abcam. The NAD(P)H-Glo™ Detection System was purchased from Promega. White, non-binding surface, 384 well plates were supplied by Corning (#3574).
# (§6) Method: Inhibition of ALDH1A3 was assessed using the NAD(P)H-Glo™ Detection System (Cat. No. G9062) from Promega. This assay detects the production of NADH from NAD by ALDH1A3 via the coupled enzymatic conversion of a proluciferin reductase substrate to generate a luminescent signal. Inhibition of ALDH1A3 by small molecule inhibitors will result in reduction or abrogation of luminescence signal increase above background. Inhibition of ALDH1A1, ALDH1A2 and ALDH2 (selectivity assays) were assessed using the same assay.
# (§7) Compounds were dosed into Corning 384 well assay plates using an Echo acoustic dispenser to give 10 point curves in a 3-fold dilution series. Compounds were dispensed from a 20 mM DMSO stock and initially screened at a top concentration of 20 μM (ALDH1A3) or 250 μM (ALDH1A1, ALDH1A2 & ALDH2). […]
# ALDH1A2 = molecular target: T2, ALDH1A2 (Homo sapiens, UniProt O94788); assay: as above
# T2 construct: His-tag; made in house; host or cells: E. coli Rosetta (DE3)
# T2 sequence (O94788 1-518): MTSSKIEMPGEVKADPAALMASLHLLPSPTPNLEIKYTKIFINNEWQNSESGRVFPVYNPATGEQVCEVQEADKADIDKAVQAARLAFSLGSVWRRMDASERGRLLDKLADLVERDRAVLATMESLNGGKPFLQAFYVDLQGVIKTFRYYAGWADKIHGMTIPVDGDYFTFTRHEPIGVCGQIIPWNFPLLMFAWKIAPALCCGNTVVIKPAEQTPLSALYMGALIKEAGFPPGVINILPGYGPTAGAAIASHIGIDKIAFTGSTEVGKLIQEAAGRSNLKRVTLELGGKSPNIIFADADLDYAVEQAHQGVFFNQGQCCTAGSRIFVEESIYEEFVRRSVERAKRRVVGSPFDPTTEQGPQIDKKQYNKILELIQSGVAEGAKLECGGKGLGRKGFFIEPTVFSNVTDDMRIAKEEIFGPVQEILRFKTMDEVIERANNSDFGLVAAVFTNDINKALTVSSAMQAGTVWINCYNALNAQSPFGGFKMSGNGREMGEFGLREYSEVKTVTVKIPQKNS
# From the text: as §1, §2, §3, §4, §5, §6, §7
Structure (SMILES),IC50 (ALDH1A1) [µM],IC50 (ALDH1A2) [µM]
"O=C1CCc2cc(OCCN3CC(O)CC3c3cccc(F)c3)ccc2N1 (mixture of isomers) [ALDHI-2035, 6-[2-[2-(3-fluorophenyl)-4-hydroxy-pyrrolidin-1-yl]ethoxy]-3,4-dihydro-1H-quinolin-2-one]",10 to 100,0.1 to 1
"CC1CN(CCOc2ccc3c(c2)CCC(=O)N3)C(c2ccccc2)CO1 (mixture of isomers) [ALDHI-2042, 6-[2-(2-methyl-5-phenyl-morpholin-4-yl)ethoxy]-3,4-dihydro-1H-quinolin-2-one]",10 to 100,0.1 to 1
"O=C1CCc2cc(NC(=O)c3sc(N4CCOCC4)nc3-c3cccc(F)c3)ccc2N1 [ALDHI-1001, 4-(3-fluorophenyl)-2-morpholino-N-(2-oxo-3,4-dihydro-1H-quinolin-6-yl)thiazole-5-carboxamide]",≥ 100,≥ 100
"CN(C)c1nc(-c2cccc(F)c2)c(C(=O)Nc2ccc3c(c2)CCC(=O)N3)s1 [ALDHI-1002, 2-(dimethylamino)-4-(3-fluorophenyl)-N-(2-oxo-3,4-dihydro-1H-quinolin-6-yl)thiazole-5-carboxamide]",≥ 100,1 to 10
"O=C1CCc2cc(NC(=O)c3scnc3-c3cccc(F)c3)ccc2N1 [ALDHI-1003, 4-(3-fluorophenyl)-N-(2-oxo-3,4-dihydro-1H-quinolin-6-yl)thiazole-5-carboxamide]",≥ 100,1 to 10
"O=C1CCc2cc(NC(=O)c3sc(N4CC(O)C4)nc3-c3cccc(F)c3)ccc2N1 [ALDHI-1004, 4-(3-fluorophenyl)-2-(3-hydroxyazetidin-1-yl)-N-(2-oxo-3,4-dihydro-1H-quinolin-6-yl)thiazole-5-carboxamide]",≥ 100,≥ 100
"O=C1CCc2cc(NC(=O)c3sc(N4CCNCC4)nc3-c3cccc(F)c3)ccc2N1 [ALDHI-1005, 4-(3-fluorophenyl)-N-(2-oxo-3,4-dihydro-1H-quinolin-6-yl)-2-piperazin-1-yl-thiazole-5-carboxamide]",≥ 100,10 to 100
"O=C1CCc2cc(NC(=O)c3c[nH]nc3-c3cccc(F)c3)ccc2N1 [ALDHI-1006, 3-(3-fluorophenyl)-N-(2-oxo-1,2,3,4-tetrahydroquinolin-6-yl)-1H-pyrazole-4-carboxamide]",≥ 100,–
"O=C1CCc2cc(NC(=O)c3ccccc3-c3cccc(F)c3)ccc2N1 [ALDHI-1007, 3′-fluoro-N-(2-oxo-1,2,3,4-tetrahydroquinolin-6-yl)-[1,1′-biphenyl]-2-carboxamide]",≥ 100,1 to 10
"Cc1noc(-c2ccccc2C(=O)Nc2ccc3c(c2)CCC(=O)N3)n1 [ALDHI-1008, 2-(3-methyl-1,2,4-oxadiazol-5-yl)-N-(2-oxo-1,2,3,4-tetrahydroquinolin-6-yl)benzamide]",≥ 100,1 to 10
"O=C1CCc2cc(NC(=O)c3ncsc3-c3cccnc3)ccc2N1 [ALDHI-1010, N-(2-oxo-3,4-dihydro-1H-quinolin-6-yl)-5-(3-pyridyl)thiazole-4-carboxamide]",≥ 100,1 to 10
"O=C1CCc2cc(NC(=O)c3ncsc3-c3ccsc3)ccc2N1 [ALDHI-1011, N-(2-oxo-3,4-dihydro-1H-quinolin-6-yl)-5-(3-thienyl)thiazole-4-carboxamide]",≥ 100,1 to 10
"O=C1CCc2cc(NC(=O)c3scnc3-c3ccccc3Cl)ccc2N1 [ALDHI-1012, 4-(2-chlorophenyl)-N-(2-oxo-3,4-dihydro-1H-quinolin-6-yl)thiazole-5-carboxamide]",10 to 100,–
"Cc1cccc(-c2ncsc2C(=O)Nc2ccc3c(c2)CCC(=O)N3)c1 [ALDHI-1013, 4-(m-tolyl)-N-(2-oxo-3,4-dihydro-1H-quinolin-6-yl)thiazole-5-carboxamide]",≥ 100,1 to 10
"O=C1CCc2cc(NC(=O)c3ncsc3-c3cccc(F)c3)ccc2N1 [ALDHI-1014, 5-(3-fluorophenyl)-N-(2-oxo-3,4-dihydro-1H-quinolin-6-yl)thiazole-4-carboxamide]",≥ 100,10 to 100
"O=C1COc2cc(NC(=O)c3scnc3-c3cccc(F)c3)ccc2N1 [ALDHI-1016, 4-(3-fluorophenyl)-N-(3-oxo-4H-1,4-benzoxazin-7-yl)thiazole-5-carboxamide]",≥ 100,1 to 10
"O=C1CCc2cc(NC(=O)c3scnc3-c3ccc(F)cc3)ccc2N1 [ALDHI-1017, 4-(4-fluorophenyl)-N-(2-oxo-1,2,3,4-tetrahydroquinolin-6-yl)thiazole-5-carboxamide]",≥ 100,1 to 10
"O=C1CCc2cc(NC(=O)c3cncnc3-c3cccc(F)c3)ccc2N1 [ALDHI-1018, 4-(3-fluorophenyl)-N-(2-oxo-3,4-dihydro-1H-quinolin-6-yl)pyrimidine-5-carboxamide]",≥ 100,–
"O=C1CCc2cc(NC(=O)c3ocnc3-c3cccc(F)c3)ccc2N1 [ALDHI-1019, 4-(3-fluorophenyl)-N-(2-oxo-3,4-dihydro-1H-quinolin-6-yl)oxazole-5-carboxamide]",≥ 100,≥ 100
"O=C1CCc2cc(NC(=O)c3scnc3-c3ccccc3F)ccc2N1 [ALDHI-1021, 4-(2-fluorophenyl)-N-(2-oxo-3,4-dihydro-1H-quinolin-6-yl)thiazole-5-carboxamide]",≥ 100,1 to 10
"O=C1CCc2cc(NC(=O)c3sccc3-c3cccc(F)c3)ccc2N1 [ALDHI-1022, 3-(3-fluorophenyl)-N-(2-oxo-3,4-dihydro-1H-quinolin-6-yl)thiophene-2-carboxamide]",10 to 100,1 to 10
"O=C1CCc2cc(NC(=O)c3scnc3-c3cccs3)ccc2N1 [ALDHI-1023, N-(2-oxo-3,4-dihydro-1H-quinolin-6-yl)-4-(2-thienyl)thiazole-5-carboxamide]",≥ 100,0.1 to 1
